Where two headings read alike, the source gives them in different places.
Legend:
[1] = in vitro; assay type: in vitro ADME
Excerpt: […]. […] […]. […] […]

[2] = target: T1, OATP1B1 (Homo sapiens, UniProt Q9Y6L6)
T1 sequence (Q9Y6L6 1-691): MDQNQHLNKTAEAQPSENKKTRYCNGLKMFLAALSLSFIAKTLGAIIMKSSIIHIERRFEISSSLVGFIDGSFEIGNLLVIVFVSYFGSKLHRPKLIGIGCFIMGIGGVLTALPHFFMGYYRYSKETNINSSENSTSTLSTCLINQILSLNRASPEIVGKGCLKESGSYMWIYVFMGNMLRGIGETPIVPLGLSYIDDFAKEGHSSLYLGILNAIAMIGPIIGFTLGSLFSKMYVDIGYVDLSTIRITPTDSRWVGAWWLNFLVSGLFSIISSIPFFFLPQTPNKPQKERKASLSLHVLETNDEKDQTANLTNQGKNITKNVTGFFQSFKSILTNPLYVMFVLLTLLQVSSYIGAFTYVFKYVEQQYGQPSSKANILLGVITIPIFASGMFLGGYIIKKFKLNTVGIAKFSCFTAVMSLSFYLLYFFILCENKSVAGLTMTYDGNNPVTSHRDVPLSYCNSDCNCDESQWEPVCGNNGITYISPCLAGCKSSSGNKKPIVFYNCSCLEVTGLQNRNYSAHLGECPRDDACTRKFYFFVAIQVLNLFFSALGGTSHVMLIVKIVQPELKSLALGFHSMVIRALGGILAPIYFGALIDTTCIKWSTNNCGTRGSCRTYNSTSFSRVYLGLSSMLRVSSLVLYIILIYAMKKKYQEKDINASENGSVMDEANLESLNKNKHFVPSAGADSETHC

[3] = target: T2, OATP1B3 (Homo sapiens, UniProt Q9NPD5)
T2 sequence (Q9NPD5 1-702): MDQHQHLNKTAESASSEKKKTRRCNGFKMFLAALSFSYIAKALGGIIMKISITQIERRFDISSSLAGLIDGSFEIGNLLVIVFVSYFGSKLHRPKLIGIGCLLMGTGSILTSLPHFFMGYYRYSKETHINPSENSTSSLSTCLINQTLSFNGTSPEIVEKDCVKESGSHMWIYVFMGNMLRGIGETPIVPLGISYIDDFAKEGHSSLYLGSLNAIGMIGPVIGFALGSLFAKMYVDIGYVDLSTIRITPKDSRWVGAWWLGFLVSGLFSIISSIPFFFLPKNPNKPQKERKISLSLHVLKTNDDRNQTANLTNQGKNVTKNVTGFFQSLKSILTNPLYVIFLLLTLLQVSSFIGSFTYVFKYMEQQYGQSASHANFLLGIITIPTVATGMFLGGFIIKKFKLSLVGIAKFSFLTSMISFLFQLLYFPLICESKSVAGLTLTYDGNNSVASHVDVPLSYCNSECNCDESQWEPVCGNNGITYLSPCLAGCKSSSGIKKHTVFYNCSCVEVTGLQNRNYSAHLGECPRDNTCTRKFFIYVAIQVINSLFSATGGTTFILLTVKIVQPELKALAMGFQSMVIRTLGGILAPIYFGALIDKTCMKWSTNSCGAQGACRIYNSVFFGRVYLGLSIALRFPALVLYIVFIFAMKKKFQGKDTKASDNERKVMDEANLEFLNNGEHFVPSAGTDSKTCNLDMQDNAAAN

[4] = system: CYP3A4; conditions: predicted by combining in vitro phenotyping and human ADME data; cited from earlier work
[5] = target: T3, UGT1A9 (Homo sapiens, UniProt O60656); parameters: method as in PMID 38123352; conditions: cited from earlier work
T3 sequence (O60656 26-530): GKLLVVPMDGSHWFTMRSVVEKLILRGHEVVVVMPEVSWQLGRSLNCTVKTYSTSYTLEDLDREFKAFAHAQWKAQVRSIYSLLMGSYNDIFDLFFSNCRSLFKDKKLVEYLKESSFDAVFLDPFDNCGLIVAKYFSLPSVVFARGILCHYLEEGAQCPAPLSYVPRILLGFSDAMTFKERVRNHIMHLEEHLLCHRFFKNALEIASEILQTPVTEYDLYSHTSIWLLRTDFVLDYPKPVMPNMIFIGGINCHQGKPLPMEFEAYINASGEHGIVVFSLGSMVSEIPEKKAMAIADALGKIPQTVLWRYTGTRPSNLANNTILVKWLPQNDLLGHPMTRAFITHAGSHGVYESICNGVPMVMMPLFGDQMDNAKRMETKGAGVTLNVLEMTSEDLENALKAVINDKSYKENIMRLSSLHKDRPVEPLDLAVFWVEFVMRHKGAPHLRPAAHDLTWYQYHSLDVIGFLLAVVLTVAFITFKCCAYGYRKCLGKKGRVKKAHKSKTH

[6] = in vitro; conditions: human, Caco-2
Procedure: Caco-2 cells were obtained from American Type Culture Collection. Prior to the experiments,
the cells were seeded on 55 cm2 bottom culture dishes (Corning). The cells were cultured at
37°C in a humidified CO2 (5%) incubator and routinely passaged about once a week. Caco-2
cultured in the medium at 37°C in a humidified CO2 (5%) incubator for 23 days to prepare cell
The medium was changed 4 days after seeding and then changed every 2 or 3 days
thereafter. Before the experiment, the integrity of the Caco-2 cell monolayer was checked by
measuring the trans-epithelial electrical resistance (TEER) value. The TEER values of cell
In the transport experiments, the medium of top side of the cells (apical side) and basal
side of the cells (basal side) were replaced with the DMSO-HBSS solution, the inhibitor-HBSS
control), or the test solutions (digoxin and mannitol as substrates). The volumes of the replaced
solutions were 300 μL for the apical side and 1 mL for the basal side. The DMSO-HBSS […]
of the solution in each basal side (receiver side) were collected and measured for the
radioactivity using an LSC. […]
collected and measured for the radioactivity using an LSC. […]
side (receiver side) were collected and measured for the radioactivity using an LSC. […]
in each apical side and each basal side (donor side) were collected and measured for the
radioactivity using an LSC.

[7] = ref 6 of supplement, cited from earlier work; for AUC0-inf observed / Cmax observed: geometric mean; for tmax observed: median
[8] = target: T3, UGT1A9; parameters: with alamethicin-pretreated HLMs (0.5 mg/mL); tissue Sekisui-XenoTech; host or cells: pooled human liver microsomes (200 donors); conditions: predicted by combining in vitro phenotyping and human ADME data; cited from earlier work
[9] = Fig 2C, soticlestat 300 mg alone or with mefenamic acid, n = 14

## O=C(c1cccnc1-c1ccncc1)N1CCC(O)(Cc2ccccc2)CC1 [Soticlestat]
[1]
  Main binding protein: AAG
  fraction unbound: 0.066
[2]
  substrate for OATP1B1: not a substrate
[3]
  substrate for OATP1B3: not a substrate
[4]
  fm by CYP3A: 9.5%
[5]; [9]
  AUC0-inf observed: 1526 ng·h/mL
  Cmax observed: 1414 ng/mL
[5]; with mefenamic acid
  effect on soticlestat exposure: did not affect soticlestat exposure
[6]
  Papp: 23.4 ×10⁻⁶ cm/s
[7]; 15 mg single oral dose
  AUC0-inf observed: 22.6 ng·h/mL
  Cmax observed: 33.5 ng/mL
  tmax observed: 15 min
[7]; 50 mg single oral dose
  AUC0-inf observed: 134 ng·h/mL
  Cmax observed: 167 ng/mL
  tmax observed: 15 min
[7]; 200 mg single oral dose
  AUC0-inf observed: 591 ng·h/mL
  Cmax observed: 527 ng/mL
  tmax observed: 15 min
[7]; 600 mg single oral dose
  AUC0-inf observed: 4937 ng·h/mL
  Cmax observed: 3847 ng/mL
  tmax observed: 30 min
[7]; 900 mg single oral dose
  AUC0-inf observed: 7454 ng·h/mL
  Cmax observed: 4814 ng/mL
[7]; 1350 mg single oral dose
  AUC0-inf observed: 12,699 h.ng/mL
  Cmax observed: 7672 ng/mL
  tmax observed: 48 min
[8]
  fm by UGT1A9: 9.3%

Reference: paper PMC12044326 (Clinical Pharmacology in Drug Development, 2025)
